This note sets out measurements from patent US20250204515A1, “Heparanase Inhibition for Graft Protection” (University of Pittsburgh - Of the Commonwealth System of …, priority 2022, published 2025).

“Also recorded” adds a separate entry of the source.

In one assay the test system is heparanase (HPSE). Description: In vitro β-D-glucuronidase activity assay (4-MUG substrate).
Another assay relates to HPSE. As to the kind of experiment: HPSE activity assay in rat lung tissue after 4 hours of EVLP. The conditions noted are these: after 4-hours EVLP; heparin 1000-U/hour or SF4 1 μM in perfusate. On the procedure: HPSE activity assay. HPSE activity was measured via a β-glucuronidase activity assay using 4-methylumbelliferyl-β-D-glucuronide (4-MUG) substrate (Millipore-Sigma). Briefly, after 4 hours of EVLP, lung tissues were homogenized in cold PBS. […] Fluorescence (λex 360 nm/λem 460 nm) was continuously measured for 60 minutes using a fluorescence microplate reader (BioTech Synergy HTX, Agilent Technologies, Santa Clara, CA).

The next assay addresses T1, heparanase (Rattus norvegicus, UniProt Q71RP1).
T1 construct: isolated lung tissue lysate was applied to biotinylated heparan sulfate-coated wells; from tissue; host or cells: rat (Lewis) lung tissue lysate
T1 sequence (Q71RP1 29-536): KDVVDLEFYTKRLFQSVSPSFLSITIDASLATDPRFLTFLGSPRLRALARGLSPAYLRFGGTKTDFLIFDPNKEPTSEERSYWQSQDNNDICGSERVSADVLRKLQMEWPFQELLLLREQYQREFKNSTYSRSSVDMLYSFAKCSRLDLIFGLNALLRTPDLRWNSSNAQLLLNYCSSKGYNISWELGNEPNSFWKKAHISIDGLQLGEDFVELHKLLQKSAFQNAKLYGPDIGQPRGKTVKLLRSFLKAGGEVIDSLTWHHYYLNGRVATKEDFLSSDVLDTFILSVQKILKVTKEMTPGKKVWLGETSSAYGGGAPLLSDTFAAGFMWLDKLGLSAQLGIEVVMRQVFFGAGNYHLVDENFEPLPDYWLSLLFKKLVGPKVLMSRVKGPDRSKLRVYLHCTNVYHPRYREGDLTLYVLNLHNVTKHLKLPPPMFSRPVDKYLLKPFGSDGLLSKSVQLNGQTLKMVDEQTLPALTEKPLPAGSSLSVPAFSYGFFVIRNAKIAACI
As to the kind of experiment: Heparanase activity assay in rat lung tissue after 1 h warm ischemia. The settings on record: rat donors given heparin 300 IU or NAH 300 μg i.v. 5 min before 1 h warm ischemia; vs untreated control. The assay is classed as in vivo. On the procedure: Models of lungs with damaged or preserved eGC and rat orthotopic left lung transplantation. Rats were sedated with 4% isoflurane via inhalation for tracheostomy and then placed on a ventilator. They received 5% isoflurane with 100% O2 via inhalation through the ventilator for 15 min to induce a deep state of anesthesia that causes arrest of spontaneous breathing. The rats were disconnected from the ventilator 5 min after intravenous administration of heparin (300 IU), a heparin derivative without anti-coagulant properties (300 μg; N-acetyl heparin (NAH) (Millipore Sigma, Burlington, MA)), or saline (300 μl, control) through the jugular vein. Cardiac activity and blood oxygen saturation were monitored after disconnection from ventilator until cardiac arrest. One hour after induction of ischemia, a median thoracotomy was performed, and blood was flushed from the lungs with cold, low potassium dextran solution (PERFADEX; XVIVO Perfusion AB) through the pulmonary artery. […]
Heparanase activity assay. Heparanase activity was measured using a heparanase assay kit (AMS Bio-technology (Europe) Ltd., Abingdon, UK) to quantitate heparan sulfate degradation according to the manufacturer's instructions. […] After incubation and washing, the remaining heparan sulfate was detected using a biotin-streptavidin-HRP system.

Assay [1] deals with glycosaminoglycans (GAGs), syndecan-1. As to the kind of experiment: Glycocalyx shedding in rat lungs during EVLP (GAGs, syndecan-1 ELISA, immunofluorescence). The settings on record: after 4 hours EVLP; SF4 vs heparin-treated, heparin vs controls. The protocol: Syndecan-1 ELISA: Syndecan-1 concentrations in EVLP perfusate were quantitated using ELISA (Immunotag™ Rat Syndecan-1 ELISA, G-Biosciences, Geno Technology, Inc., St. Louis, MO). ELISA was performed according to the manufacturer's instructions using perfusate samples acquired after 4 hours of EVLP.
Determination of glycosaminoglycans (GAGS): The concentration of GAGs in rat EVLP perfusate at 4 hours was quantitated using 1,9-dimethylmethylene blue (DMMB, Millipore Sigma). The DMMB solution (pH˜3.0) was prepared by dissolving 16 mg/I DMMB in distilled H2O containing 3.04 g/I glycine, 1.6 g/l NaCl and 95 ml 0.1 M acetic acid. Briefly, 1 ml DMMB solution was mixed with 100 μl EVLP perfusate then incubated for 18 h at room temperature. The tubes were then centrifuged at 14,000 rpm for 20 min at 4° C. Supernatants were carefully decanted, 100 μl dissolvent buffer (4 M guanidine hydrochloride, 50 mM sodium acetate, 10% propan-1-ol, pH 6.8) was added to each pellet, and the tubes were incubated at 40° C. and vortexed until GAG-DMMB pellets were completely dissolved. GAG content in each sample was measured spectrophotometrically at 656 nm.
Tissue staining and histopathological analysis: Formalin-fixed, paraffin-embedded lung tissues collected 2 hours after transplantation were sectioned to 4 μm thickness and stained with hematoxylin and eosin. In parallel, sections of tissue collected after 4 hours of EVLP were stained for immunofluorescence imaging using primary antibodies for syndecan-1 (DL-101) (#sc-12765, Santa Cruz) and caveolin-1 (#3238, Cell Signaling Technology, Danvers, MA) and with Hoechst 33342 dye (Thermo Scientific). Donkey Cy3-conjugated anti-mouse IgG (#AP192C, MilliporeSigma, Burlington, MA) and Cy5-conjugated goat anti-rabbit IgG (#A10523, Thermo Scientific) secondary antibodies were used to detect primary antibodies. Stained slides were scanned with a whole-slide image scanner (Axio Scan.Z1; Carl Zeiss AB, Oberkochen, Germany) and analyzed with digital image processing software (ZEN lite blue edition; Carl Zeiss).
Background: An ELISA detects its analyte on a solid surface through an enzyme-linked reagent.

The subject of another assay is MMP-2. As to the kind of experiment: Gelatin zymography of EVLP perfusate, inhibitors in perfusate. Further details: species or system rat. The settings on record: 4 hours EVLP, vs SF4 and control groups. The protocol: Gelatin zymography: Gelatin zymography was performed to measure secreted MMP-2 and MMP-9 activities in EVLP perfusate. Briefly, 20 μl of perfusate was mixed with 2×SDS sample buffer then loaded onto a 10% polyacrylamide gel containing 0.1% SDS and […]. After protein separation by electrophoresis, the gel was washed in renaturing buffer (Novex™ Invitrogen™) at room temperature, and then incubated in developing buffer (Novex™ Invitrogen™) overnight at 37° C. The next day, the gel was stained with Coomassie Brilliant Blue R-250 (Bio-Rad) and imaged (ChemiDoc, Bio-Rad). Enzyme activity, visualized as clear bands against the dark blue background, was quantified using Image-J (NIH).

Protocol for heparanase (HPSE): In vitro β-D-glucuronidase activity assay Heparanase activity was measured via β-Glucuronidase activity assay using 4-methylumbelliferyl-β-D-glucuronide (4-MUG) substrate (Millipore-Sigma). As a source of enzymes, platelet rich plasma (PRP) obtained from rat whole blood or rat lung whole tissue lysate, was used. […] Fluorescence (λex 360 nm/λem 460 nm) was continuously measured for 60 minutes using a fluorescence microplate reader (BioTech Synergy HTX, Agilent Technologies, Santa Clara, CA).

Turning to heparin, in the assay on heparanase (HPSE) (in vitro data), the “inhibition of HPSE in vitro, compared with SF4” value is on record as “not as effective as SF4”. Besides, the “β-D-glucuronidase activity, dose response” value in the assay on heparanase (HPSE) (in vitro, FIG. 8) is recorded as “increased in a dose-dependent manner”. Moreover, the “HPSE activity in the lungs” value in the assay with HPSE is given as “partially inhibited; also recorded: not sufficiently nor significantly inhibited”. In addition, the “heparanase activity in lung tissue” value at heparanase was “decreased; also recorded: inhibited”. For the same substance, in assay [1], the “syndecan-1 concentration in EVLP perfusate” value is given as “markedly increased; also recorded: significantly higher”. Moreover, in the assay with MMP-2, the “MMP-2 activity in EVLP perfusate” value is reported as “significantly elevated”.

Take N-acetyl heparin [NAH]: the “heparanase activity in lung tissue” value at heparanase is “inhibited”.
